Results reported in PMC5923142, “Selection and Characterization of Rupintrivir-Resistant Norwalk Virus Replicon Cells In Vitro” (Antimicrobial Agents and Chemotherapy, 2018).

Target: T1, GV A105V/I109V mutant protease (Norovirus, UniProt Q80J95, A1099V/I1103V)
T1 construct: plasmids expressing norovirus protease from GI.1 (M87661), GII.4 (DQ658413), or GV (DQ285629) norovirus; expressed in transfected cells; host or cells: HEK293T
T1 sequence (Q80J95 995-1177 A1099V/I1103V): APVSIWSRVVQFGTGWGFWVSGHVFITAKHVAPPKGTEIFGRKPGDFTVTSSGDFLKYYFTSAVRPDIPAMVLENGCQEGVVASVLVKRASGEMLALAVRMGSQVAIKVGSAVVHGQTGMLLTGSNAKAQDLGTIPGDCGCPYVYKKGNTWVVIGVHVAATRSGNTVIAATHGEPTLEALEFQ
Experiment: Cell-based FRET assay, GV A105V/I109V protease
Set-up: species or system murine norovirus (MNV) GV (DQ285629)
Source text: The generation of plasmids expressing norovirus protease from GI.1 (M87661), GII.4 (DQ658413), or GV (DQ285629) norovirus and FRET assay constructs has been described previously ([18]). The plasmids carrying GI, GII, and GV proteases with the A105V, I109V, or A105V/I109V mutation were generated from the wild-type (WT) protease constructs described above by the QuikChange site-directed mutagenesis method. Mutant MNV genomes for reverse genetics were generated by two-step PCR mutagenesis of the WT MNV genome (pT7 MNV 3RZ) construct as described previously ([27]). The primers used for generation of the plasmids are listed in Tables S1 and S2 in the supplemental material.
The YFP/CFP ratio was used to determine FRET efficiency, as described previously ([18], [40]). Briefly, HEK293T cells were plated into black 96-well cell culture microplates (Greiner Bio-One) at a density of 5 × 10^4 cells/well in 100 μl of DMEM containing 10% fetal bovine serum with or without various concentrations of rupintrivir and then incubated for 4 h in a CO2 incubator at 37°C. […] The plates were then analyzed on a SpectraMax i3 instrument in fluorescence mode, with excitation set at 434 nm and the reading emissions set at 477 nm (CFP) and 527 nm (YFP). The background fluorescence from wells transfected with pcDNA3.1 was determined and subtracted. […]

## CCOC(=O)/C=C/[C@H](C[C@@H]1CCNC1=O)NC(=O)[C@@H](CC(=O)[C@@H](NC(=O)c1cc(C)on1)C(C)C)Cc1ccc(F)cc1 [rupintrivir, Rupintrivir]
HEK293T cells, GV NS1/2-NS3 FRET substrate
  IC50: 2300 ± 300 nM
Vs GV WT protease
  fold increase in IC50: 2.3 fold
